Test results: patent US20180249717A1, “HOUSE DUST MITE ALLERGY PROTEIN REMOVER, AND COMPOSITION THEREOF” (AYJ BIO LAB INC., priority 2015, published 2018)

Tests used:
[1] = test system: house dust mite proteins (two major HDM allergens group 1 and 2); experiment: SDS-PAGE denaturing/neutralizing activity against house dust mite proteins; type: biochemical; design: key: +++: comparable to or higher than the activity of the positive control tannic acid; ++: neutralizing activity somewhat lower than that of the positive control; conditions: compounds; incubated with mite proteins 1 hr at 25 C; relative to tannic acid
Text: Adult mites (both sexes, 6-8 days old) were extracted, as described previously [Nakada, S., K. Ito, C. Urata, Y. Sakamoto, M. Hasegawa, T. Nakagawa & T. Miyamoto. 1985. Allergenecity and immunogenicity of house-dust mite (Dermatophagoides farinae) antigens treated with glutaraldehyde. Ann. Allergy 54: 437441; Tovey, E. R. & B. A. Baldo. 1987. Comparison by electroblotting of IgE-binding components in ectracts of house dust mite bodies and spent mite culture. J. Allergy Clin. Immunol. 79: 93102.]. In brief, whole bodies (80 mg fresh weight/4 mL buffer) were homogenized on ice in 0.01 M phosphate-buffered saline (PBS) (pH 7.4) for 15 min. The homogenate was then stirred at 0° C. for 1 hr, centrifuged for 30 min at 14000 g, and concentrated by ultrafiltration to 1 mg/mL of protein.
The protein content was determined using a Bradford protein assay kit (Pierce, Rockford, Ill.). Bovine serum albumin (Pierce, Rockford, Ill.) was used as the standard. Precision Plus Protein Standards was supplied by Bio-Rad (Hercules, Calif.).
SDS-PAGE was performed according to the modified method of Laemmli [Laemmli, U.K. 1970. Cleavage of structural proteins during the assembly of the head of bacteriophage T4. Nature 227: 680685]. Based on the preliminary test results, mixtures of mite proteins ([…]) and each test material ([…]) in 4.5 μL of dimethyl sulfoxide (DMSO) were incubated for 1 hr at 25±1° C. Negative controls consisted of 4.5 μL of DMSO. Tannic acid or 3% tannic acid solution served as a positive control and was similarly formulated. Samples were mixed with an equal volume of SDS sample buffer (4% SDS, 4% mercaptoethanol, and 100 mM Tris-HCl, pH 8.0), boiled for 10 min, and resolved by electrophoresis on 12% (w/v) polyacrylamide gels by using a Mini-Protean 3 electrophoresis cell (Bio-Rad, Hercules, Calif.). After electrophoresis at 120 V for 80 min, the gels were stained with 0.1% Coomassie brilliant blue R-250 for quantification. The intensity of denaturing activity of each test material toward the two major HDM allergens group 1 and 2 was determined using a Gel Doc XR image analyzer with Quantity One Software (Bio-Rad, Hercules, Calif.) according to the manufacturer's instructions.
In FIG. 1, lane M represents a protein marker; land Ext represents a negative control loaded only with untreated house dust mite protein; lanes 5 and 6 indicate moderate activity; lanes 1, 2, 3 and 4 indicate strong activity; and lane TA represents a positive control treated with tannic acid.
Plant essential oils and compounds, confirmed to have neutralizing activity against house dust mites in the above experiments, are summarized in Tables 7 and 8 below, respectively.

[2] = test system: Dermatophagoides farina house dust mite proteins; experiment: Dot-blot immunoassay for human-specific IgE reactivity (inhibition of allergenicity); type: binding; design: unit not given here; conditions: 500 μg each, allergic patient's serum IgE
Description: (§1) In addition, a dot-blot immunoassay for human-specific IgE reactivity was performed, as described previously [Tsai, L. C., Y. C. Sun, P. L. Chao, M. W. Hung, I. C. Kuo, et al. 2000. Protein sequence analysis and mapping of IgE and IgG epitopes of an allergenic 98 kDa Dermatophagoides farinae paramyosin, Der f 11. Allergy 55: 141147]. House dust mite proteins (10 μg) were applied to a PVDF membrane using a Hybri-Dot Manifold (Life Technologies, Gaithersburg, Md.) according to the manufacturer's instructions. After blocking with 0.1% PBS-T containing 5% skim milk, the membrane was incubated with 1:500 diluted allergic patient's antiserum at 4° C. overnight. After washing with 0.1% PBS-T three times, the membrane was incubated with 1:20000 diluted goat anti-human IgG (H+L)-HRP and IgE-HRP conjugate (Zymed Laboratories, Sanfrancisco, Calif.) for 1 hr at 25±1° C. The essential oils and compounds (500 μg each) were tested with the patient's serum which was diluted 1:250, and then incubated 1:5000 diluted IgE-HRP conjugate antibodies. After additional washing, as stated previously, the blot was incubated with ECL chemiluminescence reagent for 1 min and exposed to X-ray films for 5-20 min at room temperature. The intensity of the IgE-reacting dot was determined using a Bio-Rad Gel Doc XR image analyzer, as stated previously. Tannic acid served as a standard reference and was similarly formulated.
(§2) The reference numerals used in FIG. 2 indicate the following: C: untreated control; T: tannic acid; 1: spearmint essential oil; 2: Summer savory essential oil; 3: Oregano essential oil; 4: Carrot seed essential oil; 5: Catnip essential oil; 6: Mandarin essential oil; 7: Lime essential oil; and 8: Celery essential oil.
(§3) The inhibitory activities of the above-described plant essential oils and compounds against the allergenicity of two species of house dust mite proteins are shown in Tables 9 and 10 below, respectively. […]

[3] = test system: Dermatophagoides pteronyssinus house dust mite proteins; experiment: as above; type: binding; conditions: 500 μg each, allergic patient's serum IgE
Description: as §1, §2, §3

[4] = test system: adult American house dust mites (Dermatophagoides farina); experiment: Spray bioassay of spray formulations (acaricidal activity); type: in vivo; conditions: sprayed on cotton fabric, 24 h post-treatment
Description: The acaricidal effect of each of carrot seed essential formulations and spearmint essential oil formulations, dissolved in ethanolpolyoxyethylene+polyoxypropylene (9:1) styrenated phenyl ether, was evaluated using a spray bioassay.
In brief, a spray bioassay was used to evaluate the efficacy of four experimental spray formulations against adult American house dust mites (Dermatophagoides farina) [Lee, J. H., J. R. Kim, Y. R. Koh & Y. J. Ahn. 2013. Contact and fumigant toxicity of Pinus densiflora needle hydrodistillate constituents and related compounds and efficacy of spray formulations containing the oil to Dermatophagoides farinae. Pest Manag. Sci. 69: 696702]. Each test solution was sprayed two times successively at 10 cm upwards onto the 5 cm diameter black cotton-fabric circle. After drying for 5 min, each fabric circle was placed onto the bottom section of a disposable Petri dish (5 cm diameter×1 cm height). Groups of 40-50 adult mites (both sexes, 7-10 days old) were placed separately onto the treated fabric circles, and each dish was sealed with the original tight-fitting lid. 2.5 g/L of the commercial acaricide d-phenothrin or permethnrin (cis:trans, 25:75) spray served as a positive control. […] Mortalities were determined 24 h post-treatment under a dissecting microscope (×20). […]

[5] = test system: group 2 allergens (Der p II and Der f II); conditions: 3% tannic acid solution (wt/vol), compared with group 1; cited from earlier work
[6] = test system: group 1 allergens (Der p I and Der f I); conditions: 3% tannic acid solution (wt/vol); cited from earlier work

SMILES	Neutralizing activity [1]	Inhibition of allergenicity, Dermatophagoides farina ([2]; compounds)	Inhibition of allergenicity, Dermatophagoides pteronyssinus ([3]; compounds)	also measured
C=CCN=C=S [Allyl isothiocyanate]	+++	82.1	73.0	–
CC(C)c1ccc(C=O)cc1 [Cuminaldehyde]	+++	80.4	76.1	–
CC(C)=CC1C(C(=O)OCc2cccc(Oc3ccccc3)c2)C1(C)C (stereo not drawn) [d-Phenothrin, d-phenothrin]	–	–	–	Mortality (%, standard error) ([4]; carrot seed essential oil sprays, d-phenothrin spray 2.5 g/L as positive control): 8.3 ± 1.7 d %
CC(C)=CCC/C(C)=C/C=O [Geranial]	+++	72.6	68.1	–
CC(C)=CCC/C(C)=C\C=O [Neral]	++	77.2	56.5	–
C=C(C)[C@H](CO)CC=C(C)C [Lavandulol]	++	74.4	62.7	–
CC=Cc1ccc(OC)cc1 [Anethole]	++	62.3	52.1	–
C=CCc1cc(OC)c2c(c1)OCO2 [Myristicin]	+++	76.3	67.0	–
CC(C)=CCC/C(C)=C\CO [Nerol]	++	67.9	42.3	–
CC1=CCC2C(C1)C2(C)C (stereo not drawn) [Delta-3-carene]	+++	77.9	78.1	–
C=CC(C)(O)CCC=C(C)CCC=C(C)C (stereo not drawn) [Nerolidol]	++	42.3	67.7	–
CC12CCC(CC1=O)C2(C)C (stereo not drawn) [Camphor]	++	78.2	77.9	–
CC(C)c1ccccc1 [Cumene]	++	60.9	47.8	–
C/C=C\c1cc(OC)c(OC)cc1OC [Beta-asarone]	++	64.9	68.5	–
CC1(C)C(C=C(Cl)Cl)C1C(=O)OCc1cccc(Oc2ccccc2)c1 (stereo not drawn) [Permethrin]	–	–	–	mortality at 2500 µg/mL ([4]; Dermatophagoides, spearmint essential oil sprays, permethrin spray 2.5 g/L as positive control, read-out: Mortality (%, standard error)): 17.3 ± 3.3%
C=C(C)[C@@H]1CC=C(CO)CC1 [Perilla alcohol]	++	68.7	56.5	–
CC(C)=CCCC(C)CCO (stereo not drawn) [Citronellol]	++	61.2	49.2	–
C=C(C)C1CC=C(C=O)CC1 (stereo not drawn) [Perillaldehyde]	+++	79.1	76.4	–
O=C(OC[C@H]1O[C@@H](OC(=O)c2cc(O)c(O)c(OC(=O)c3cc(O)c(O)c(O)c3)c2)[C@H](OC(=O)c2cc(O)c(O)c(OC(=O)c3cc(O)c(O)c(O)c3)c2)[C@@H](OC(=O)c2cc(O)c(O)c(OC(=O)c3cc(O)c(O)c(O)c3)c2)[C@@H]1OC(=O)c1cc(O)c(O)c(OC(=O)c2cc(O)c(O)c(O)c2)c1)c1cc(O)c(O)c(OC(=O)c2cc(O)c(O)c(O)c2)c1 [Tannic acid, reference compound]	–	–	–	Denaturation of group 2 allergens [5]: somewhat less effective; Denaturation of group 1 allergens [6]: denatures; Inhibition of allergenicity, Dermatophagoides farina ([2]; essential oils): 87.2; Inhibition of allergenicity, Dermatophagoides pteronyssinus ([3]; essential oils): 81.1
Cc1ccc(C(C)C)c(O)c1 [Thymol]	+++	79.4	67.9	–
C=C(C)[C@@H]1CC[C@@H](C)C[C@H]1O [Isopulegol]	++	76.5	57.4	–
